Tested on: V79 cells
Experiment: Colony formation, survival fraction of V79 cells
Assay type: cell-based, Chinese hamsters
Description: An anti-cancer agent and a pharmaceutical composition were administered to test cells and then the cells were cultured. Then, after colonies were formed, the number of colonies was counted. Here, samples in which the concentration of the anti-cancer agent to be administered was varied were prepared, and in each sample, the survival fraction of the cells compared with the case where cells were cultured without administration of the pharmaceutical composition was measured. Regarding the type of anti-cancer agent to be administered, a predetermined anti-cancer agent was selected depending on the type of administration target cells. Note that cells that were cultured without administration of the pharmaceutical composition and the anti-cancer agent were used as a control. Hereinafter, these steps will be described.
Here, CHO cells, V79 cells, and canine-derived cancer cells were prepared as the test cells. The CHO cells are ovarian cells derived from Chinese hamsters, and the V79 cells are fibroblasts derived from the lungs of Chinese hamsters. Melanoma developing cells (CML6M) and soft tissue sarcoma developing cells (STSA-1) were used as the cancer cells.
The cancer cells were prepared by being cultured using an αMEM culture medium supplemented with 10% serum and an antibiotic. The cancer cells were prepared such that, when the concentration of the cells in a cell suspension obtained by subjecting the cultured cells to PBS washing and trypsin treatment, the concentration was within a predetermined concentration range. Here, the predetermined concentration ranges were 300 cells/well, 100 to 150 cells/well, and 500 to 1000 cells/well for the CHO/V79 cells, the melanoma cells, and the soft tissue sarcoma cells, respectively.
Next, the cancer cells were cultured in culture environments to which the anti-cancer agent was added at various concentrations, and were then allowed to form colonies. The culture periods for colony formation were a week, 10 days, and 14 days for CHO and V79, melanoma, and soft tissue sarcoma, respectively. After colonies were formed, washing using a physiological saline solution, fixation using 100% ethanol, and staining using 0.1% crystal violet were performed, and then the number of colonies per well was counted under a microscope. Note that, here, the colony was defined as containing 50 or more cells. […]
A graph with the horizontal axis representing the concentration of the anti-cancer agent and the vertical axis representing the survival fraction was created by plotting the survival fraction measurement results relative to the SQAP administration amounts, and the effect of the addition of SQAP on the survival fraction was examined. Hereinafter, the results from each anti-cancer agent will be shown in a table and described. […]
V79 cells were used as the cells, and cisplatin was used as the anti-cancer agent. The cisplatin was administered at concentrations of 0 μg/mL, 0.1 μg/mL, 0.2 μg/mL, 0.3 μg/mL, 0.4 μg/mL, and 0.5 μg/mL.
V79 cells were used as the cells, and camptothecin was used as the anti-cancer agent. The amount of the camptothecin was set to 0 nM, 5 nM, 10 nM, 15 nM, and 20 nM.
V79 cells were used as the cells, and mitomycin C was used as the anti-cancer agent. The amount of MMC was set to 0 nM, 100 nM, 200 nM, 300 nM, 400 nM, and 500 nM. […]
V79 cells were used as the cells, and taxol was used as the anti-cancer agent. The amount of the taxol was set to 0 nM, 10 nM, 20 nM, and 30 nM.
V79 cells were used as the cells, and MMS was used as the anti-cancer agent. The amount of the MMS was set to 0 μM, 10 μM, 20 μM, 30 μM, and 40 μM.
In the above examples, the anti-cancer agent and the pharmaceutical composition were administered to the test cells and then the cells were cultured. […]

CCCCCCCCCCCCCCCCCC(=O)OCCCO[C@H]1O[C@H](CS(=O)(=O)O)[C@@H](O)[C@H](O)[C@H]1O [SQAP, sulfoquinovosylacylpropanediol]
survival fraction (MMS 40 μM + SQAP 10 μM): about 7% | survival fraction (MMS 40 μM + SQAP 20 μM): less than 1% | survival fraction (SQAP 10 μM alone): 10% | survival fraction (SQAP 20 μM alone): 10% | survival fraction of cells after culture, SQAP and anti-cancer agent in combination compared with SQAP alone (any anti-cancer agent of the examples): decreased | survival fraction (bleomycin 15 nM + SQAP 10 μM): about 20% | survival fraction (bleomycin 15 nM + SQAP 20 μM): about 2% | survival fraction (camptothecin 20 nM + SQAP 10 μM): about 12% | survival fraction (camptothecin 20 nM + SQAP 20 μM): about 3% | survival fraction (cisplatin 0.3 μg/mL + SQAP 10 μM (b65 prints 1011M)): about 8% | survival fraction (cisplatin 0.3 μg/mL + SQAP 20 μM (b65 prints 20 without unit)): about 5% | survival fraction (etoposide 30 nM + SQAP 10 μM): about 9% | survival fraction (etoposide 30 nM + SQAP 20 μM): about 8% | survival fraction (mitomycin C 500 nM + SQAP 10 μM): about 2% | survival fraction (mitomycin C 500 nM + SQAP 20 μM): about 1.8% | survival fraction (taxol 30 nM + SQAP 10 μM): about 2% | survival fraction (taxol 30 nM + SQAP 20 μM): about 2%
